{
  "source": "patent US20250214977A1",
  "about": "“STAT6 INHIBITORS AND USES THEREOF” (Kymera Therapeutics, Inc., priority 2024, published 2025)",
  "data": [
    {"system": "Phosphorylation of STAT6 in human PBMC (CD19+ B cells)", "experiment": "Phosphorylated STAT6 (pSTAT6) flow cytometry assay in human PBMC, IL-4 stimulated", "format": "cell-based", "details": "compound 1 hour, 1 ng/ml IL-4 for 15 minutes, read-out: STAT6 IL4 pSTAT6 assay in PBMC: Average IC50", "experimental": "Example 2. Phosphorylated STAT6 (pSTAT6) Flow Cytometry Assay in Human PBMC\nPhosphorylation of STAT6 in human PBMC was quantitatively measured using flow cytometry technology. Human PBMC were seeded in 96-well plates with a density of 0.3 to 0.5 million cells per well in 100 μl fresh media. Compounds were then added to the assay plates with a final top concentration of up to 30 μM in a 1:3 dilution series with total of 9 doses. The assay plates were incubated for 1 hour at 37° C. under 5% CO2. The cells were then stimulated with 1 ng/ml of IL-4 (R&D Systems, Cat #6507-IL) for 15 minutes, followed by fixation for 30 minutes at 4° C. Cells were spun down at 350 g for 5 minutes. The supernatant was removed and cells were washed once with FACS buffer. Cells were permeabilized with 90% MeOH/H2O for 30 minutes at 4° C., followed by one wash with FACS buffer. Non-specific binding were blocked with human Fc for 1 hour at 4 C, followed by one wash with FACS buffer. AF488 conjugated pSTAT6 antibody (BD Biosciences, Cat #612600, 1:100 dilution) and PE conjugated CD19 antibody (BD Biosciences, Cat #341103, 1:50 dilution) diluted in 100 μl FACS buffer was added to each well with overnight incubation at 4° C. Cells were then washed once with FACS buffer and resuspended in 200 μl of FACS buffer for flow cytometry to quantify pSTAT6 in CD19+ B cells. The data was analyzed by GraphPad Prism and the dose dependent pSTAT6 inhibition was fit using the four-parameter inhibitor vs. response nonlinear regression.", "units": {"IC50": "µM"}, "values": [
      {"molecule": "Cc1nocc1C(=O)N1CCC=C(c2ccc3cc(C(=O)N(C)C)[nH]c3c2)C1", "note": "[Example I-35]", "IC50": "10 to 100"},
      {"molecule": "CN(C)C(=O)c1cc2ccc(C3=CCCN(C(=O)c4ccc(-c5ccc(Cl)cc5)cc4)C3)cc2[nH]1", "note": "[Example I-83]", "IC50": "10 to 100"},
      {"molecule": "O=C(CCn1ccnn1)N1CCC=C(c2ccc3cc(C(=O)N4CCCCC4)[nH]c3c2)C1", "note": "[Example I-123]", "IC50": "10 to 100"},
      {"molecule": "CN(C)C(=O)c1nc2cc(C3=CCCN(C(=O)CCn4ccnn4)C3)ccc2s1", "note": "[Example I-192]", "IC50": "> 100"},
      {"molecule": "CC(=O)c1cc(C(=O)N2CCC=C(c3ccc4cc(C(=O)N(C)C)[nH]c4c3)C2)n[nH]1", "note": "[Example I-49]", "IC50": "10 to 100"},
      {"molecule": "CN(C)C(=O)c1cc2cc(C3=CCCN(C(=O)CCc4cccnn4)C3)ccc2o1", "note": "[Example I-220]", "IC50": "> 100"},
      {"molecule": "COC(=O)C1CCC(c2ccc3oc(C(=O)N(C)C)cc3c2)CN1C(=O)CCn1ccnn1", "note": "(centres unmarked) [Example I-150]", "IC50": "> 100"},
      {"molecule": "CN(C)C(=O)c1cc2cc(C3=CCCN(C(=O)CC4CCOCC4)C3)ccc2o1", "note": "[Example I-255]", "IC50": "> 100"},
      {"molecule": "Cc1c(S(C)(=O)=O)ccc(C(=O)N2CCC=C(c3ccc4cc(C(=O)N(C)C)[nH]c4c3)C2)c1Cl", "note": "[Example I-138]", "IC50": "> 100"},
      {"molecule": "CN(C)C(=O)c1cc2ccc(C3=CCCN(C(=O)CNC(=O)c4cccc(C(F)(F)F)c4)C3)cc2[nH]1", "note": "[Example I-101]", "IC50": "> 100"},
      {"molecule": "CC(=O)N1Cc2ccccc2CC1C(=O)N1CCC=C(c2ccc3oc(C(=O)N(C)C)cc3c2)C1", "note": "(centres unmarked) [Example I-170]", "IC50": "> 100"},
      {"molecule": "CC(=O)Nc1ccc(CC(=O)N2CCC=C(c3ccc4oc(C(=O)N(C)C)cc4c3)C2)cc1", "note": "[Example I-287]", "IC50": "> 100"},
      {"molecule": "CN(C)C(=O)c1cc2cc(C3=CCCN(C(=O)CCc4ccc5c(c4)OCO5)C3)ccc2o1", "note": "[Example I-282]", "IC50": "> 100"},
      {"molecule": "CNc1ccc(-c2cc(C3=CCCN(C(=O)CCn4ccnn4)C3)cc3[nH]c(C(=O)N(C)C)cc23)c(Cl)c1", "note": "[Example I-118]", "IC50": "< 0.1"},
      {"molecule": "CNS(=O)(=O)c1cccc(C(=O)N2CCC=C(c3ccc4cc(C(=O)N(C)C)[nH]c4c3)C2)c1", "note": "[Example I-70]", "IC50": "> 100"},
      {"molecule": "CO[C@@H](C(=O)N1CCC=C(c2ccc3cc(C(=O)N(C)C)[nH]c3c2)C1)c1ccccc1", "note": "[Example I-50]", "IC50": "10 to 100"},
      {"molecule": "CN(C)C(=O)c1cc2ccc(C3=CCCN(C(=O)[C@@H]4CCCN4C(=O)c4ccc(F)cc4)C3)cc2[nH]1", "note": "[Example I-99]", "IC50": "> 100"},
      {"molecule": "CC(=O)OCC(C(=O)N1CCC=C(c2ccc3cc(C(=O)N(C)C)[nH]c3c2)C1)c1ccccc1", "note": "(centres unmarked) [Example I-73]", "IC50": "10 to 100"},
      {"molecule": "CN(C)C(=O)c1cc2ccc(C3=CCCN(C(=O)C4CCC4C(=O)O)C3)cc2[nH]1", "note": "(centres unmarked) [Example I-39]", "IC50": "10 to 100"},
      {"molecule": "CN(C)C(=O)c1cc2cc(C3=CCCN(C(=O)CCn4ccnc4)C3)ccc2o1", "note": "[Example I-310]", "IC50": "> 100"},
      {"molecule": "Cc1cccc(C)c1N1CC(C(=O)N2CCC=C(c3ccc4cc(C(=O)N(C)C)[nH]c4c3)C2)CC1=O", "note": "(centres unmarked) [Example I-97]", "IC50": "10 to 100"},
      {"molecule": "CN(C)C(=O)c1cc2ccc(C3=CCCN(C(=O)[C@@H]4C[C@H]4c4ccc(Br)cc4)C3)cc2[nH]1", "note": "[Example I-56]", "IC50": "10 to 100"},
      {"molecule": "CN(C)C(=O)c1cc2ccc(C3=CCCN(C(=O)[C@@H](Cn4ccnn4)c4cccc(O)c4)C3)cc2[nH]1", "note": "[Example I-122]", "IC50": "> 100"},
      {"molecule": "CN(C)C(=O)c1cc2ccc(C3=CCCN(C(=O)C(CC4CC4)N4Cc5ccccc5C4=O)C3)cc2[nH]1", "note": "(centres unmarked) [Example I-104]", "IC50": "> 100"},
      {"molecule": "CN(C)C(=O)c1cc2cc(C3=CCCN(C(=O)CCn4ccnn4)C3)cc(C3CCNCC3)c2o1", "note": "[Example I-215]", "IC50": "10 to 100"},
      {"molecule": "CN(C)C(=O)c1cc2ccc(C3=CCCN(C(=O)c4cc(C#N)ccc4Br)C3)cc2[nH]1", "note": "[Example I-144]", "IC50": "> 100"},
      {"molecule": "CN(C)C(=O)c1cc2ccc(C3=CCCN(C(=O)CCN4CCOC4=O)C3)cc2[nH]1", "note": "[Example I-134]", "IC50": "> 100"},
      {"molecule": "Cc1ccc(C(=O)N2CCC=C(c3ccc4cc(C(=O)N(C)C)[nH]c4c3)C2)c(=O)n1-c1ccc(F)cc1", "note": "[Example I-111]", "IC50": "> 100"}
    ]},
    {"system": "Phosphorylation of STAT6 in human A549 cells", "experiment": "Phosphorylated STAT6 (pSTAT6) flow cytometry assay in human A549 cells", "format": "cell-based", "details": "read-out: STAT6 IL4 pSTAT6 assay in A549 cells: Average IC50", "from_the_text": "Example 3. Phosphorylated STAT6 (pSTAT6) Flow Cytometry Assay in Human A549 Cells\nPhosphorylation of STAT6 in human A549 cells was quantitatively measured using flow cytometry technology.", "units": {"IC50": "µM"}, "values": [
      {"molecule": "COc1cc(F)cnc1N1CCN(C(=O)c2cc3c(-c4ccc(NC5CCCC5)cc4)cc(C4=CCCN(C(=O)CCn5ccnn5)C4)c(F)c3[nH]2)CC1", "note": "[Example I-1124]", "IC50": "0.1 to 1"},
      {"molecule": "COc1nc(N2CCN(C(=O)c3cc4c(-c5cnc6ccccc6c5OC)cc(C5=CCCN(C(=O)CCn6ccnn6)C5)c(F)c4[nH]3)CC2)ccc1F", "note": "[Example I-469]", "IC50": "0.1 to 1"},
      {"molecule": "COc1ccccc1-c1cc(C2CCCN(C(=O)CCn3ccnn3)C2)c(F)c2[nH]c(C(=O)N3CCN(c4ncccc4OC)CC3)cc12", "note": "(centres unmarked) [Example I-348]", "IC50": "< 0.1"},
      {"molecule": "COc1ccccc1-c1cc(C2=CCCN(C(=O)CCn3ccnn3)C2)c(F)c2[nH]c(C(=O)N3CCN(c4nc5ccccc5nc4C)CC3)cc12", "note": "[Example I-339]", "IC50": "< 0.1"},
      {"molecule": "COc1ccccc1-c1cc(C2=CCCN(C(C)=O)C2)c(F)c2[nH]c(C(=O)N3CCN(c4ncccc4OC)CC3)cc12", "note": "[Example I-553]", "IC50": "0.1 to 1"},
      {"molecule": "COc1ccccc1-c1cc(C2=CCCN(C(=O)CCn3ccnn3)C2)c(F)c2[nH]c(C(=O)N3CCN(c4ccc(C#N)cc4F)CC3)cc12", "note": "[Example I-1009]", "IC50": "< 0.1"},
      {"molecule": "CCOc1ccncc1-c1cc(C2=CCCN(C(=O)CCn3ccnn3)C2)c(F)c2[nH]c(C(=O)N3CCN(c4ncncc4OC)CC3)cc12", "note": "[Example I-1108]", "IC50": "< 0.1"},
      {"molecule": "COc1ccccc1-c1cc(C2=CCCN(C(=O)CCn3ccnn3)C2)c(F)c2[nH]c(C(=O)N3CCN(c4ccccc4OC)CC3)cc12", "note": "[Example I-349]", "IC50": "< 0.1"},
      {"molecule": "CC(=O)N1CCC=C(c2cc(-c3ccccc3C)c3cc(C(=O)N(C)C)[nH]c3c2F)C1", "note": "[Example I-890]", "IC50": "0.1 to 1"},
      {"molecule": "COc1ccccc1-c1cc(C2=CCCN(C(=O)CCn3ccnn3)C2)c(F)c2[nH]c(C(=O)N3CCN(c4ccccc4C)CC3)cc12", "note": "[Example I-421]", "IC50": "< 0.1"},
      {"molecule": "COc1ccccc1-c1cc(C2=CCCN(C(=O)CCn3ccnn3)C2)c(F)c2[nH]c(C(=O)N3CCN(c4ccc(F)c(F)c4F)CC3)cc12", "note": "[Example I-769]", "IC50": "< 0.1"},
      {"molecule": "CCc1ccc(-c2cc(C(=O)N3CCN(c4ncc(F)cc4OC)CC3)cc3cc(C4=CCCN(C(C)=O)C4)n(CC4CC4)c23)c(C)n1", "note": "[Example I-793]", "IC50": "< 0.1"},
      {"molecule": "(1S)-3-[4-(4-ethyl-3-pyridyl)-7-fluoro-2-[4-(5-fluoro-3-methoxy-2-pyridyl)piperazine-1-carbonyl]-1H-indol-6-yl]cyclohex-3-ene-1-carboxylic acid [Example I-809]", "IC50": "< 0.1"},
      {"molecule": "COc1cc(F)cnc1N1CCN(C(=O)c2cc3c(C4=CCN(C(C)=O)CC4)cc(C4=CCCN(C(=O)CCn5ccnn5)C4)c(F)c3[nH]2)CC1", "note": "[Example I-657]", "IC50": "< 0.1"},
      {"molecule": "CN(C)C(=O)c1cc2cc(C3=CCCN(C(=O)CCn4ccnn4)C3)cc(-c3cnn(C)c3)c2o1", "note": "[Example I-1077]", "IC50": "< 0.1"},
      {"molecule": "CCc1cnccc1-c1cc(C2=CCCN(C(=O)CCn3cccn3)C2)c(F)c2[nH]c(C(=O)N3CCN(c4ncc(OC)cc4OC)CC3)cc12", "note": "[Example I-684]", "IC50": "< 0.1"},
      {"molecule": "COc1ccccc1-c1cc(C2=CCCN(C(=O)CCn3ccnn3)C2)c(F)c2[nH]c(C(=O)N3Cc4ccc(C#N)cc4C3)cc12", "note": "[Example I-975]", "IC50": "< 0.1"},
      {"molecule": "CCc1ccncc1-c1cc(C2=CCCN(C(C)=O)C2)c(F)c2[nH]c(C(=O)N3CCN(c4cc(F)cnc4OC)CC3)cc12", "note": "[Example I-699]", "IC50": "10 to 100"},
      {"molecule": "CCc1nc(C)ccc1-c1cc(C(=O)N2CCN(c3ccc(F)cc3OC)CC2)cc2cc(C3=CCCN(C(=O)CCn4ccnn4)C3)n(CC3CC3)c12", "note": "[Example I-534]", "IC50": "> 100"}
    ]}
  ]
}
